Laboratory results: patent publication US12577206B2 (BRISTOL-MYERS SQUIBB COMPANY, priority 2020, dated 2026)

Legend:
human FPR1 = target: T1, human FPR1 (Homo sapiens, UniProt P21462); experiment: FPR1 cyclic adenosine monophosphate (cAMP) assay; format: cell-based; settings: CHO cells overexpressing human FPR1; forskolin 10 μM; inhibition of cAMP production; HTRF; read-out: hFPR1 cAMP2 EC50
T1 sequence (P21462 1-350): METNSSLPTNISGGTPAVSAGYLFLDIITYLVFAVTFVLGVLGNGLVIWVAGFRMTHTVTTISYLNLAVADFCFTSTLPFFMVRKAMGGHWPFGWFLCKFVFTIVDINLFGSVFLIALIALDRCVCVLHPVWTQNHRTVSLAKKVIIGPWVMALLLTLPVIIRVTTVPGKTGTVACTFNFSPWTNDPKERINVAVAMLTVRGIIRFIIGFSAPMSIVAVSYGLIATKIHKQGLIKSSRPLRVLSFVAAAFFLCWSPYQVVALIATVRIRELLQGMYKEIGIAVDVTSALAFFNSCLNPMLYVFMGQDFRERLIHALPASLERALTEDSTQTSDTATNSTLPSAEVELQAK
Procedure, shortened: (§1)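 Inhibition of forskolin-stimulated cAMP (final forskolin 5 μM for FPR2, 10 μM for FPR1; IBMX 200 μM) was measured by HTRF in recombinant CHO cells after 30 min at room temperature.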

human FPR2 = target: T2, human FPR2 (Homo sapiens, UniProt P25090); experiment: FPR2 cyclic adenosine monophosphate (cAMP) assay; format: cell-based; settings: CHO cells overexpressing human FPR2; forskolin 5 μM; inhibition of cAMP production; HTRF; read-out: hFPR2 cAMP2 EC50
T2 sequence (P25090 1-351): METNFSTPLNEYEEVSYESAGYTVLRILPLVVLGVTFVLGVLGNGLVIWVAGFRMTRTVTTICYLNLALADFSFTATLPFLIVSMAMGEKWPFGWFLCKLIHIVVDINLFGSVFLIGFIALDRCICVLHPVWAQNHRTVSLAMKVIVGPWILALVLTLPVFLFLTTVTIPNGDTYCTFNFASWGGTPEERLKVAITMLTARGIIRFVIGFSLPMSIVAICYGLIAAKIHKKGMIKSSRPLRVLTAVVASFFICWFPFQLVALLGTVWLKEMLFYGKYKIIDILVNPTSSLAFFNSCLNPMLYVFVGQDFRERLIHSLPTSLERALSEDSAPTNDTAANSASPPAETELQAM
Procedure, shortened: as §1

Structure (SMILES) | EC50 (human FPR1) | EC50 (human FPR2)
COc1cc(F)c(-c2c(NC(=O)c3ccc(OC(F)F)cc3)c(=O)n(-c3nccc(C4CCCCC4)c3C#N)n2C)c(F)c1 [Example 199, N-[2-(3-cyano-4-cyclohexylpyridin-2-yl)-5-(2,6-difluoro-4-methoxyphenyl)-1methyl-3-oxo-2,3-dihydro-1H-pyrazol-4-yl]-4-(difluoromethoxy)benzamide] | 900 nM | 5 nM
COc1cc(F)c(-c2c(NC(=O)c3ccc(OC(F)F)cc3)c(=O)n(-c3nccc(C)c3C#N)n2C)c(F)c1 [Example 201, N-[2-(3-cyano-4-methylpyridin-2-yl)-5-(2,6-difluoro-4-methoxyphenyl)-1-methyl-3-oxo-2,3-dihydro-1H-pyrazol-4-yl]-4-(difluoromethoxy)benzamide] | > 10000 nM | 4 nM
COc1cc(F)c(-c2c(NC(=O)c3ccc(OC(F)F)cc3)c(=O)n(-c3nc(N4CCN(C)CC4)ccc3C#N)n2C)c(F)c1 [Example 202, N-{2-[3-cyano-6-(4-methylpiperazin-1-yl)pyridin-2-yl]-5-(2,6-difluoro-4-methoxyphenyl)-1-methyl-3-oxo-2,3-dihydro-1H-pyrazol-4-yl}-4-(difluoromethoxy)benzamide] | 2500 nM | 32 nM
COc1cc(F)c(-c2c(NC(=O)c3ccc(OC(F)F)cc3)c(=O)n(-c3nc(Cl)ccc3N3CC(C)(O)C3)n2C)c(F)c1 [Example 203, N-{2-[6-chloro-3-(3-hydroxy-3-methylazetidin-1-yl)pyridin-2-yl]-5-(2,6-difluoro-4-methoxyphenyl)-1-methyl-3-oxo-2,3-dihydro-1H-pyrazol-4-yl}-4-(difluoromethoxy)benzamide] | > 10000 nM | 5 nM
COc1cc(F)c(-c2c(NC(=O)c3ccc(OC(F)F)cc3)c(=O)n(-c3cccc(CN(C)C)n3)n2C)c(F)c1 [Example 204, N-[5-(2,6-difluoro-4-methoxyphenyl)-2-{6-[(dimethylamino)methyl]pyridin-2-yl}-1-methyl-3-oxo-2,3-dihydro-1H-pyrazol-4-yl]-4-(difluoromethoxy)benzamide] | > 10000 nM | 15 nM
COc1cc(F)c(-c2c(NC(=O)c3ccc(OC(F)F)cc3)c(=O)n(-c3cccc(CN4CCN(C)CC4)n3)n2C)c(F)c1 [Example 205, N-[5-(2,6-difluoro-4-methoxyphenyl)-1-methyl-2-{6-[(4-methylpiperazin-1-yl)methyl]pyridin-2-yl}-3-oxo-2,3-dihydro-1H-pyrazol-4-yl]-4-(difluoromethoxy)benzamide] | > 10000 nM | 25 nM
COc1cc(F)c(-c2c(NC(=O)c3ccc(OC(F)F)cc3)c(=O)n(-c3cccc(N4CCN(CCS(C)(=O)=O)CC4)n3)n2C)c(F)c1 [Example 206, N-[5-(2,6-difluoro-4-methoxyphenyl)-2-{6-[4-(2-methanesulfonylethyl)piperazin-1-yl]pyridin-2-yl}-1-methyl-3-oxo-2,3-dihydro-1H-pyrazol-4-yl]-4-(difluoromethoxy)benzamide] | > 5000 nM | 44 nM
COc1cc(F)c(-c2c(NC(=O)c3ccc(OC(F)F)cc3)c(=O)n(-c3cccc(N4CCN(CC5CC5)CC4)n3)n2C)c(F)c1 [Example 207, N-(2-{6-[4-(cyclopropylmethyl)piperazin-1-yl]pyridin-2-yl}-5-(2,6-difluoro-4-methoxyphenyl)-1-methyl-3-oxo-2,3-dihydro-1H-pyrazol-4-yl)-4-(difluoromethoxy)benzamide] | 140 nM | 3 nM

Other lines, results leading:

EC50 (human FPR1) | EC50 (human FPR2) | Structure (SMILES)
> 10000 nM | 3 nM | COc1cc(F)c(-c2c(NC(=O)c3ccc(OC(F)F)cc3)c(=O)n(-c3cccc(N4CCN(CCCO)CC4)n3)n2C)c(F)c1 [Example 208, N-[5-(2,6-difluoro-4-methoxyphenyl)-2-{6-[4-(3-hydroxypropyl)piperazin-1-yl]pyridin-2-yl}-1-methyl-3-oxo-2,3-dihydro-1H-pyrazol 4-yl]-4-(difluoromethoxy)benzamide]
> 10000 nM | 3 nM | COc1cc(F)c(-c2c(NC(=O)c3ccc(OC(F)F)cc3)c(=O)n(-c3nc(Cl)ccc3N(C)C)n2C)c(F)c1 [Example 209, N-{2-[6-chloro-3-(dimethylamino)pyridin-2-yl]-5-(2,6-difluoro-4-methoxyphenyl)-1-methyl-3-oxo-2,3-dihydro-1H-pyrazol-4-yl}-4-(difluoromethoxy)benzamide]
4800 nM | 11 nM | COc1cc(F)c(-c2c(NC(=O)c3ccc(OC(F)F)cc3)c(=O)n(-c3nc(N4CC(C)(O)C4)ccc3F)n2C)c(F)c1 [Example 210, N-[5-(2,6-difluoro-4-methoxyphenyl)-2-[3-fluoro-6-(3-hydroxy-3-methylazetidin-1-yl)pyridin-2-yl]-1-methyl-3-oxo-2,3-dihydro-1H-pyrazol-4-yl]-4-(difluoromethoxy)benzamide]
> 10000 nM | 12 nM | COc1cc(F)c(-c2c(NC(=O)c3ccc(OC(F)F)cc3)c(=O)n(-c3ncccc3N3CC(C)(O)C3)n2C)c(F)c1 [Example 211, N-[5-(2,6-difluoro-4-methoxyphenyl)-2-[3-(3-hydroxy-3-methylazetidin-1-yl)pyridin-2-yl]-1-methyl-3-oxo-2,3-dihydro-1H-pyrazol-4-yl]-4-(difluoromethoxy)benzamide]
> 10000 nM | 9 nM | COCCN1CCN(c2cccc(-n3c(=O)c(NC(=O)c4ccc(OC(F)F)cc4)c(-c4c(F)cc(OC)cc4F)n3C)n2)CC1 [Example 212, N-[5-(2,6-difluoro-4-methoxyphenyl)-2-{6-[4-(2-methoxyethyl)piperazin-1-yl]pyridin-2-yl}-1-methyl-3-oxo-2,3-dihydro-1H-pyrazol-4-yl]-4-(difluoromethoxy)benzamide]
> 10000 nM | 16 nM | COc1cc(F)c(-c2c(NC(=O)c3ccc(OC(F)F)cc3)c(=O)n(-c3cccc(N4CCN(S(C)(=O)=O)CC4)n3)n2C)c(F)c1 [Example 213, N-[5-(2,6-difluoro-4-methoxyphenyl)-2-[6-(4-methanesulfonylpiperazin-1-yl)pyridin-2-yl]-1-methyl-3-oxo-2,3-dihydro-1H-pyrazol-4-yl]-4-(difluoromethoxy)benzamide]
150 nM | 4 nM | COc1cc(F)c(-c2c(NC(=O)c3ccc(OC(F)F)cc3)c(=O)n(-c3nc(N4CCNC(=O)C4)ccc3C(F)(F)F)n2C)c(F)c1 [Example 214, N-[5-(2,6-difluoro-4-methoxyphenyl)-1-methyl-3-oxo-2-[6-(3-oxopiperazin-1-yl)-3-(trifluoromethyl)pyridin-2-yl]-2,3-dihydro-1H-pyrazol-4-yl]-4-(difluoromethoxy)benzamide]
> 10000 nM | 5 nM | CNc1ccc(Cl)nc1-n1c(=O)c(NC(=O)c2ccc(OC(F)F)cc2)c(-c2c(F)cc(OC)cc2F)n1C [Example 215, N-{2-[6-chloro-3-(methylamino)pyridin-2-yl]-5-(2,6-difluoro-4-methoxyphenyl)-1-methyl-3-oxo-2,3-dihydro-1H-pyrazol-4-yl}-4-(difluoromethoxy)benzamide]
> 10000 nM | 6 nM | COc1cc(F)c(-c2c(NC(=O)c3ccc(OC(F)F)cc3)c(=O)n(-c3nc(N4CCC[C@H]4C(N)=O)ccc3C(F)(F)F)n2C)c(F)c1 [Example 216, (2S)-1-{6-[3-(2,6-difluoro-4-methoxyphenyl)-4-[4-(difluoromethoxy)benzamido]-2-methyl-5-oxo-2,5-dihydro-1H-pyrazol-1-yl]-5-(trifluoromethyl)pyridin-2-yl}pyrrolidine-2-carboxamide]
> 10000 nM | 6 nM | COc1cc(F)c(-c2c(NC(=O)c3ccc(OC(F)F)cc3)c(=O)n(-c3nc(Cl)ccc3N3CCN(C)CC3)n2C)c(F)c1 [Example 217, N-{2-[6-chloro-3-(4-methylpiperazin-1-yl)pyridin-2-yl]-5-(2,6-difluoro-4-methoxyphenyl)-1-methyl-3-oxo-2,3-dihydro-1H-pyrazol-4-yl}-4-(difluoromethoxy)benzamide]
1500 nM | 21 nM | COc1cc(F)c(-c2c(NC(=O)c3ccc(OC(F)F)cc3)c(=O)n(-c3cccc(N4CC(C)(C)C4)n3)n2C)c(F)c1 [Example 218, N-[5-(2,6-difluoro-4-methoxyphenyl)-2-[6-(3,3-dimethylazetidin-1-yl)pyridin-2-yl]-1-methyl-3-oxo-2,3-dihydro-1H-pyrazol-4-yl]-4-(difluoromethoxy)benzamide]
3200 nM | 10 nM | COc1cc(F)c(-c2c(NC(=O)c3ccc(OC(F)F)cc3)c(=O)n(-c3nc(N4CCN(C)CC4)ccc3F)n2C)c(F)c1 [Example 219, N-[5-(2,6-difluoro-4-methoxyphenyl)-2-[3-fluoro-6-(4-methylpiperazin-1-yl)pyridin-2-yl]-1-methyl-3-oxo-2,3-dihydro-1H-pyrazol-4-yl]-4-(difluoromethoxy)benzamide]
